Assay results: patent US20140127192A1, “METHOD FOR TREATING OSTEOPOROSIS” (AMGEN INC, priority 2011, published 2014)

How the values were obtained:
[1] = tested on: postmenopausal women with low BMD at lumbar vertebrae, total hip or femoral neck; assay: Randomized multicenter study, BMD measured by DXA in postmenopausal women with low BMD; assay type: in vivo, human; conditions: open label active control arm; for Femoral Neck BMD % Change from Baseline, Mean / Lumbar Vertebrae BMD % Change from Baseline, Mean / Total Hip BMD % Change from Baseline, Mean: 12 months; for mean percent change of lumbar vertebrae BMD from pretreatment baseline: month 6; for mean percent change of distal ⅓ radius BMD from pretreatment baseline: month 12
Description: This example describes in vivo studies wherein an anti-sclerostin antibody improved bone mineral density in postmenopausal women.
A multicenter, international, randomized, parallel group study in postmenopausal women with low BMD at lumbar vertebrae, total hip or femoral neck was conducted. 419 subjects were randomized to receive one of five regimens of an anti-sclerostin antibody, placebo, open label alendronate (ALN), or open label teriparatide (TPTD) for 12 months. The placebo group was further randomized to match the schedules corresponding to the five anti-sclerostin antibody regimens. The subject distribution was as follows: 52 subjects to the placebo arm, 51 subjects to ALN arm, 55 subjects to TPTD arm, and 51, 54, 51, 53, and 52 subjects to anti-sclerostin antibody 70 mg QM, 140 mg Q3M, 140 mg QM, 210 mg Q3M, and 210 mg QM arms, respectively. 383 subjects completed the 12 months of study. Among all subjects enrolled in the study, the mean age was 66.8 years old, 86.4% of subjects were Caucasian, and the mean pretreatment baseline lumbar vertebrae and total hip BMD T-scores were −2.29 and −1.53, respectively. The primary analysis occurred after all subjects had the opportunity to complete the month 12 study visit. BMD was measured by DXA. Overall, the proportions of patients reporting adverse events were balanced between placebo arm and anti-sclerostin antibody arms.

[2] = tested on: bone resorption marker (CTX) and bone formation markers (P1NP, BSAP, OC); assay: Bone turnover markers in the same study (serum CTX, P1NP, BSAP, OC); assay type: in vivo, human; conditions: open label active control
Text: A subject's physiological response to an anti-sclerostin antibody can be gauged by monitoring bone marker levels. Bone markers are products created during the bone remodeling process and are released by bone, osteoblasts, and/or osteoclasts. Fluctuations in bone resorption and/or bone formation “marker” levels imply changes in bone remodeling/modeling. The International Osteoporosis Foundation (IOF) recommends using bone markers to monitor bone density therapies (see, e.g., Delmas et al., Osteoporos Int., Suppl. 6:S2-17 (2000), incorporated herein by reference). Markers indicative of bone resorption (or osteoclast activity) include, for example, C-telopeptide (e.g., C-terminal telopeptide of type 1 collagen (CTX) or serum cross-linked C-telopeptide), N-telopeptide (N-terminal telopeptide of type 1 collagen (NTX)), deoxypyridinoline (DPD), pyridinoline, urinary hydroxyproline, galactosyl hydroxylysine, and tartrate-resistant acid phosphatase (e.g., serum tartrate-resistant acid phosphatase isoform 5b). Bone formation/mineralization markers include, but are not limited to, bone-specific alkaline phosphatase (BSAP), peptides released from N- and C-terminal extension of type I procollagen (P1NP, PICP), and osteocalcin (OC). Several kits are commercially-available to detect and quantify markers in clinical samples, such as urine and blood.
A multicenter, international, randomized, parallel group study in postmenopausal women with low BMD at lumbar vertebrae, total hip or femoral neck was conducted. 419 subjects were randomized to receive one of five regimens of an anti-sclerostin antibody, placebo, open label alendronate (ALN), or open label teriparatide (TPTD) for 12 months. The placebo group was further randomized to match the schedules corresponding to the five anti-sclerostin antibody regimens. […] BMD was measured by DXA. […]

Compound	Femoral Neck BMD % Change from Baseline, Mean [1]	Lumbar Vertebrae BMD % Change from Baseline, Mean [1]	Total Hip BMD % Change from Baseline, Mean [1]	mean percent change of lumbar vertebrae BMD from pretreatment baseline [1]	mean percent change of distal ⅓ radius BMD from pretreatment baseline [1]	adaptive response (bone formation markers falling to approximately baseline within two to six months) [2]	bone formation markers over the course of treatment [2]
NCCCC(O)(P(=O)(O)O)P(=O)(O)O [ALN, alendronate]	1.2%	4.1%	1.9%	2.6%	−0.3%	not observed	
CC[C@H](C)[C@H](NC(=O)[C@H](CCC(=O)O)NC(=O)[C@H](CO)NC(=O)[C@@H](NC(=O)[C@@H](N)CO)C(C)C)C(=O)N[C@@H](CCC(N)=O)C(=O)N[C@@H](CC(C)C)C(=O)N[C@@H](CCSC)C(=O)N[C@@H](Cc1cnc[nH]1)C(=O)N[C@@H](CC(N)=O)C(=O)N[C@@H](CC(C)C)C(=O)NCC(=O)N[C@@H](CCCCN)C(=O)N[C@@H](Cc1cnc[nH]1)C(=O)N[C@@H](CC(C)C)C(=O)N[C@@H](CC(N)=O)C(=O)N[C@@H](CO)C(=O)N[C@@H](CCSC)C(=O)N[C@@H](CCC(=O)O)C(=O)N[C@@H](CCCN=C(N)N)C(=O)N[C@H](C(=O)N[C@@H](CCC(=O)O)C(=O)N[C@@H](Cc1c[nH]c2ccccc12)C(=O)N[C@@H](CC(C)C)C(=O)N[C@@H](CCCN=C(N)N)C(=O)N[C@@H](CCCCN)C(=O)N[C@@H](CCCCN)C(=O)N[C@@H](CC(C)C)C(=O)N[C@@H](CCC(N)=O)C(=O)N[C@@H](CC(=O)O)C(=O)N[C@H](C(=O)N[C@@H](Cc1cnc[nH]1)C(=O)N[C@@H](CC(N)=O)C(=O)N[C@@H](Cc1ccccc1)C(=O)O)C(C)C)C(C)C [TPTD, teriparatide]	1.1%	7.1%	1.3%	4.8%	−1.7%	not observed	remained elevated
